Assay results reported in patent US11193004B2, “Phosphoric ester preparations with reduced hygroscopicity” (LANXESS Deutschland GmbH, priority 2013, dated 2021).

What was measured:
[1] = Solubility in water of phosphoric esters b)
physchem = conditions: 25 °C, water

Compound | Solubility in water at 25° C. [1] | solubility (physchem) [µg/mL]
O=P(OC(CCl)CCl)(OC(CCl)CCl)OC(CCl)CCl [TDCP, Tris(2,3-dichloroisopropyl) phosphate] | 100 µg/mL | 
CCOP(=O)(OCC)OCC [TEP, Triethyl phosphate] | miscible | > 3000
Diphenyl cresyl phosphate [DPC] | 2.6 µg/mL | 
Isopropylated triphenyl phosphate [IPP] | 0.33 µg/mL | 
